Assay results taken from patent US20050203086A1, “Methods of treatment using an EP2 selective receptor agonist” (Pfizer Inc., priority 2004, published 2005).

These molecules were tested against T1, prostaglandin E2 type 2 (EP2) receptors (Homo sapiens, UniProt P43116) (assay: Assay for Binding to Prostaglandin E2 Receptors (3H-prostaglandin E2 displacement, membranes of transfected 293S cells)). Settings: concentration displacing 50% of specifically bound 3H-prostaglandin E2, 1 hour at 25° C.
T1 construct: These full length receptors are used to prepare 293S cells expressing the EP1, EP2, EP3 and EP4 receptors; expressed in transfected cells; membranes
T1 sequence (P43116 whole entry): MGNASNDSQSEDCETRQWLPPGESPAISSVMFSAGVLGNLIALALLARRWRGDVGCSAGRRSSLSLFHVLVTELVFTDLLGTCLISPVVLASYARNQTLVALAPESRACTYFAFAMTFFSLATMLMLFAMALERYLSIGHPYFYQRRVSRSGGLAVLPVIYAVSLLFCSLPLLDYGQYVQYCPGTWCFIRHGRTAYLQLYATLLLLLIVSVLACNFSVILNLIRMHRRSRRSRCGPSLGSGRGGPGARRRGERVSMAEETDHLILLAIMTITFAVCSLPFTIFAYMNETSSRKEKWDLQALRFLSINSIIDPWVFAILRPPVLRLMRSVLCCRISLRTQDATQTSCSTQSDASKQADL

SMILES | IC50
Cn1cnc(S(=O)(=O)N(Cc2ccc(C(C)(C)C)cc2)Cc2cccc(OCC(=O)O)c2)c1 [Example 1ac, (3-(((4-tert-Butyl-benzyl)-(1-methyl-1H-imidazole-4-sulfonyl)-amino)-methyl)-phenoxy)-acetic acid] | 335 nM
CC(=O)Nc1nc(C)c(S(=O)(=O)N(CCCc2cccc(Cl)c2)CCCc2ccc(C(=O)O)s2)s1 [Example 4h, 5-(3-((2-Acetylamino-4-methyl-thiazole-5-sulfonyl)-(3-(3-chloro-phenyl)-propyl)-amino)-propyl)-thiophene-2-carboxylic acid] | 210 nM
O=C(O)c1ccc(CCCN(CCCc2cccc(Cl)c2)C(=O)Nc2cc(Cl)cc(Cl)c2)s1 [Example 7g, 5-(3-(1-(3-(3-Chloro-phenyl)-propyl)-3-(3,5-dichloro-phenyl)-ureido)-propyl)-thiophene-2-carboxylic acid] | 412 nM
O=C(O)c1ccc(CCCN(CCCc2cccc(Cl)c2)C(=O)Nc2ccccc2)s1 [Example 7b, 5-(3-(1-(3-(3-Chloro-phenyl)-propyl)-3-phenyl-ureido)-propyl)-thiophene-2-carboxylic acid] | 140 nM
CCCCc1ccc(CN(Cc2cccc(CC(=O)O)c2)S(=O)(=O)c2ccc([N+](=O)[O-])cc2)cc1 [Example 1k, (3-(((4-Butyl-benzyl)-(4-nitro-benzenesulfonyl)-amino)-methyl)-phenyl)-acetic acid] | 1760 nM
O=C(O)c1ccc(CCCN(CCCc2cccc(Cl)c2)C(=O)N2CCOCC2)s1 [Example 8a, 5-(3-((3-(3-Chloro-phenyl)-Propyl)-(morpholine-4-carbonyl)-amino)-propyl)-thiophene-2-carboxylic acid] | 180 nM
Cn1cnc(S(=O)(=O)N(Cc2ccc(-c3cncnc3)cc2)Cc2cccc(CC(=O)O)c2)c1 [Example 1ai, (3-(((1-Methyl-1H-imidazole-4-sulfonyl)-(4-pyrimidin-5-yl-benzyl)-amino)-methyl)-phenyl)-acetic acid] | 125 nM
O=C(O)Cc1cccc(CN(Cc2ccc(-n3ccnc3)cc2)S(=O)(=O)c2cccnc2)c1 [Example 1s, (3-(((4-Imidazol-1-yl-benzyl)-(pyridine-3-sulfonyl)-amino)-methyl)-phenyl)-acetic acid] | 165 nM
O=C(O)Cc1cccc(CN(Cc2ccc(-c3cnccn3)cc2)S(=O)(=O)c2cccnc2)c1 [Example 1ak, (3-(((4-Pyrazin-2-yl-benzyl)-(pyridine-3-sulfonyl)-amino)-methyl)-phenyl)-acetic acid] | 6.19 nM
CCCCc1ccc(CN(CCCCCCC(=O)O)S(=O)(=O)c2ccccc2)cc1 [Example 1a, 7-(Benzenesulfonyl-(4-butyl-benzyl)-amino)-heptanoic acid] | 2200 nM
COC(=O)c1ccccc1S(=O)(=O)N(CCCc1cccc(Cl)c1)CCCc1ccc(C(=O)O)s1 [Example 6e, 5-(3-((3-(3-Chloro-Phenyl)-propyl)-(2-methoxycarbonyl-benzenesulfonyl)-amino)-propyl)-thiophene-2-carboxylic acid] | 325 nM
Cn1cnc(S(=O)(=O)N(Cc2ccc(Oc3ccccc3)cc2)Cc2cccc(CC(=O)O)c2)c1 [Example 1ae, (3-(((11-Methyl-1H-imidazole-4-sulfonyl)-(4-phenoxy-benzyl)-amino)-methyl)-phenyl)-acetic acid] | 121 nM
O=C(O)Cc1cccc(CN(Cc2ccc(Oc3ccccc3)cc2)S(=O)(=O)c2cccnc2)c1 [Example 1af, (3-(((4-Phenoxy-benzyl)-(pyridine-3-sulfonyl)-amino)-methyl)-phenyl)-acetic acid] | 106 nM
CCCCc1ccc(CN(Cc2cccc(CC(=O)O)c2)S(=O)(=O)c2ccc(C)cc2)cc1 [Example 1o, (3-(((4-Butyl-benzyl)-(toluene-4-sulfonyl)-amino)-methyl)-phenyl)-acetic acid] | 550 nM
O=C(O)c1ccc(CCCN(CCCc2cccc(Cl)c2)S(=O)(=O)c2ccccc2F)s1 [Example 6j, 5-(3-((3-(3-Chloro-phenyl)-propyl)-(2-fluoro-benzenesulfonyl)-amino)-propyl)-thiophene-2-carboxylic acid] | 375 nM
CCCCCc1ccc(CN(Cc2cccc(CC(=O)O)c2)S(=O)(=O)c2cccnc2)cc1 [Example 1g, (3-(((4-Pentyl-benzyl)-(pyridine-3-sulfonyl)-amino)-methyl)-phenyl)-acetic acid] | 109 nM
O=C(O)Cc1cccc(CN(Cc2ccc3c(c2)OCCO3)S(=O)(=O)c2cccnc2)c1 [Example 1p, (3-(((2,3-Dihydro-benzo[1.4]dioxin-6-ylmethyl)-(pyridine-3-sulfonyl)-amino)-methyl)-phenyl)-acetic acid] | 44 nM
O=C(O)c1ccc(CCCN(CCCc2cccc(Cl)c2)S(=O)(=O)c2ccccc2Cl)s1 [Example 6, 5-(3-((2-Chloro-benzenesulfonyl)-(3-(3-chloro-phenyl)-propyl)-amino)-propyl)-thiophene-2-carboxylic acid] | 315 nM
O=C(O)Cc1cccc(CN(Cc2ccc(Cc3ccccc3)cn2)S(=O)(=O)c2cccnc2)c1 [Example 1d, (3-(((5-Benzyl-pyridin-2-ylmethyl)-(pyridine-3-sulfonyl)-amino)-methyl)-phenyl)-acetic acid] | 885 nM
